According to ChEMBL document CHEMBL1201862, “PubChem BioAssay data set” (2004):
The source made the active and inactive calls.

Key:
[1] = THP-1 cell cytotoxicity, dose response, cytotoxicity control for non-replicating M. tuberculosis project (AID 489025); format: functional
[2] = Vero E6 cell cytotoxicity, dose response, cytotoxicity control for non-replicating M. tuberculosis project, secondary assay (AID 492998); format: functional, VeroE6; settings: Vero C1008
[3] = cells; format: functional
[4] = system: CHO; experiment: cytotoxicity in TLR9-MyD88 CHO cells, dose response, cytotoxicity control for TLR9-MyD88 binding inhibitor project, cell-based, luminescence (AID 588339); format: functional, hamster; settings: Cricetulus griseus;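 further: CHO cells stably coexpressing TLR9 and MyD88 fusions from primary screen; compound exposure lasted 48 hours before viability readout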
[5] = target: Beta Lactamase (Pseudomonas aeruginosa, UniProt Q932Y6); experiment: beta-lactamase reporter inhibitor potency, dose response, artefact control for TLR9-MyD88 binding inhibitor project, BLA reporter cells, FRET fluorescence (AID 588341); format: cell-based;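 further: cell based assay in CHO-K1 cells stably expressing beta-lactamase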
Chain of Beta Lactamase (Q932Y6 whole entry): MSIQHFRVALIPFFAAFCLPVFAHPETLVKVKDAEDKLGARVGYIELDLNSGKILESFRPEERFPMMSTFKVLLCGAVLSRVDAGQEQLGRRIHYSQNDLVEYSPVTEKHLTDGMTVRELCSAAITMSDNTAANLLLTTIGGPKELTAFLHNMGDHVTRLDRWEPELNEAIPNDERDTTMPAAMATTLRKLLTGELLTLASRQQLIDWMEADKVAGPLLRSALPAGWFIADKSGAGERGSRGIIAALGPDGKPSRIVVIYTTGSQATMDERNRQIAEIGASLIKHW

[6] = target: DNA dC->dU-editing enzyme APOBEC-3G (Homo sapiens, UniProt Q9HC16); experiment: APOBEC3G deaminase inhibitors, SAR follow-up, biochemical, fluorescence, single-stranded DNA substrate (AID 602136); format: functional; settings: read-out: IC50_Mean
Chain of DNA dC->dU-editing enzyme APOBEC-3G (Q9HC16 whole entry): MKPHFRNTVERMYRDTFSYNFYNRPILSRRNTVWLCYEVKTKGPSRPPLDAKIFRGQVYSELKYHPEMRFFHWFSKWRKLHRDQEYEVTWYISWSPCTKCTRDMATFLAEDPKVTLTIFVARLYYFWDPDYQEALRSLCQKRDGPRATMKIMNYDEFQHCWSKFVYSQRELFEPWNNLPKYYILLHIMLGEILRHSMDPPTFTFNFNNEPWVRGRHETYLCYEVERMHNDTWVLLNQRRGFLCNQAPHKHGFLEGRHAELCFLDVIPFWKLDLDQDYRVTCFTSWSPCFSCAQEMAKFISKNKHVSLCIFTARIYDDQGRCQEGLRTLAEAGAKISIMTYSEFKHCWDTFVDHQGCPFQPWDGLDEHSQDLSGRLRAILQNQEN

[7] = target: DNA dC->dU-editing enzyme APOBEC-3A (Homo sapiens, UniProt P31941); experiment: SAR analysis of small molecule inhibitors of APOBEC3A DNA Deaminase via a fluorescence-based single-stranded DNA deaminase assay.; format: functional; settings: read-out: IC50_Mean
Chain of DNA dC->dU-editing enzyme APOBEC-3A (P31941 whole entry): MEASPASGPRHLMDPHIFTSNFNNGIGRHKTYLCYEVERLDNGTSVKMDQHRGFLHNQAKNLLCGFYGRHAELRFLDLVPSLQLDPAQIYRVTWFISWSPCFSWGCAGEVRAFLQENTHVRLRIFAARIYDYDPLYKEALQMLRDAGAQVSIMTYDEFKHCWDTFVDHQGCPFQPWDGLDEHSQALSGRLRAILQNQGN

[8] = inhibitors of firefly luciferase expression or activity, dose response, H4 neuroglioma cells, luminescence (AID 1990); format: functional, cell-based
[9] = Luminescence Cell-Based Dose Response HTS to Identify Inhibitors of 5'UTR Stem-Loop Driven Prion Protein mRNA Translation in H4 Neuroglioblastoma Cells. [Related pubchem assays: 1827 (Project Summary), 1813 (Primary HTS)]; format: functional
[10] = inhibitors of SNCA 5'UTR-driven reporter translation, confirmation, H4 neuroglioma cells, luminescence (AID 1988); format: functional, cell-based
[11] = target: T1, Replicative DNA helicase DnaB (Mycobacterium tuberculosis, UniProt P9WMR3); experiment: DnaB intein splicing inhibitors, dose response, biochemical, cell-free fluorescence (AID 449749); format: functional
T1 sequence (P9WMR3 whole entry): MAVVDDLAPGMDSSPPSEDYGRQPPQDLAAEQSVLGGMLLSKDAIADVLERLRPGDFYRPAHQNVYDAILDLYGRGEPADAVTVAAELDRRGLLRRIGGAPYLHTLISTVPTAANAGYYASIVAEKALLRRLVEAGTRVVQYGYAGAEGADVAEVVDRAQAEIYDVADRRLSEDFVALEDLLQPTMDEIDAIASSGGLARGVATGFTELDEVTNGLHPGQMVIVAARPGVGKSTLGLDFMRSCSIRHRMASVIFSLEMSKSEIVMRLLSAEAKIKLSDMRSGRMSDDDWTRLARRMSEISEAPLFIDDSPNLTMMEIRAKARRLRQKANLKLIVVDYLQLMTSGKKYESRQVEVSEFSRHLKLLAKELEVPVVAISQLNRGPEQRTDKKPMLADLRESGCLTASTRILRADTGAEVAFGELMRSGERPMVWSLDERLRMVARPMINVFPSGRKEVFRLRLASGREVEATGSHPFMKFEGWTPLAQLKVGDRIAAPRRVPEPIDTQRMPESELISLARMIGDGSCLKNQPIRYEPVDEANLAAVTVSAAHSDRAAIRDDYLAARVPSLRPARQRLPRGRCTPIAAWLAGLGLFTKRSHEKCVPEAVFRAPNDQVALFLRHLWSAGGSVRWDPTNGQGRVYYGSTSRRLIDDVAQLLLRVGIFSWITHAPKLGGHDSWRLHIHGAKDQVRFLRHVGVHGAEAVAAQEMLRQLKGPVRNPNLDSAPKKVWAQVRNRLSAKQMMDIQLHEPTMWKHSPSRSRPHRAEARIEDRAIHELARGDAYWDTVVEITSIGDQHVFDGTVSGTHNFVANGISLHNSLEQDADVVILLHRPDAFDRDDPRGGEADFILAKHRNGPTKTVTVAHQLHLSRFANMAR

[12] = target: T2, Protein RecA (Mycobacterium tuberculosis, UniProt P9WHJ3); experiment: Fluorescence Cell-Free Homogeneous Dose Retest to Identify Inhibitors of RecA-Intein Splicing Activity. [Related pubchem assays (depositor defined):AID2097, AID2223, AID489010, AID492950]; format: functional
T2 sequence (P9WHJ3 whole entry): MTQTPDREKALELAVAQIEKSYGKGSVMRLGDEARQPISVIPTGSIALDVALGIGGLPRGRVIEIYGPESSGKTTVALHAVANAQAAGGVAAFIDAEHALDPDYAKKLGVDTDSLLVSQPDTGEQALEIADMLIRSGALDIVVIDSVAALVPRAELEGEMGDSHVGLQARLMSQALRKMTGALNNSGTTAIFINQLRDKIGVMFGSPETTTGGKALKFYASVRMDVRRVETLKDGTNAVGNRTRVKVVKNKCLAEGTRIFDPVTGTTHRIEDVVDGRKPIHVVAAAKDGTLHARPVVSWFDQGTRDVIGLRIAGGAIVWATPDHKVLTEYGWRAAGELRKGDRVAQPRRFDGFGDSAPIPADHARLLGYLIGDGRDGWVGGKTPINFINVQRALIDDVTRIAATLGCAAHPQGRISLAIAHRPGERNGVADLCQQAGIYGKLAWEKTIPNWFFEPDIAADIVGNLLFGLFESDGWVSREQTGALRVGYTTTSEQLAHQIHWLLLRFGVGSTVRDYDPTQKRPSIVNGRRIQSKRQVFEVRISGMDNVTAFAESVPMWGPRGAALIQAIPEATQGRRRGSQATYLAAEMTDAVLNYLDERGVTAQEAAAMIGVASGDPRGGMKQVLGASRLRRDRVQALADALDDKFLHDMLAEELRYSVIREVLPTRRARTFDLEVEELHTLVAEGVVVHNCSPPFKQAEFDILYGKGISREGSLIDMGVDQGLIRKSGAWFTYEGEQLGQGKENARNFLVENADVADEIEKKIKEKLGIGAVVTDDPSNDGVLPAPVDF

[13] = target: T3, Protein disulfide-isomerase (Homo sapiens, UniProt P07237); experiment: PDI inhibitors, insulin aggregation turbidity, dose response, biochemical, absorbance, cherry-picked samples (AID 602350); format: functional
T3 sequence (P07237 whole entry): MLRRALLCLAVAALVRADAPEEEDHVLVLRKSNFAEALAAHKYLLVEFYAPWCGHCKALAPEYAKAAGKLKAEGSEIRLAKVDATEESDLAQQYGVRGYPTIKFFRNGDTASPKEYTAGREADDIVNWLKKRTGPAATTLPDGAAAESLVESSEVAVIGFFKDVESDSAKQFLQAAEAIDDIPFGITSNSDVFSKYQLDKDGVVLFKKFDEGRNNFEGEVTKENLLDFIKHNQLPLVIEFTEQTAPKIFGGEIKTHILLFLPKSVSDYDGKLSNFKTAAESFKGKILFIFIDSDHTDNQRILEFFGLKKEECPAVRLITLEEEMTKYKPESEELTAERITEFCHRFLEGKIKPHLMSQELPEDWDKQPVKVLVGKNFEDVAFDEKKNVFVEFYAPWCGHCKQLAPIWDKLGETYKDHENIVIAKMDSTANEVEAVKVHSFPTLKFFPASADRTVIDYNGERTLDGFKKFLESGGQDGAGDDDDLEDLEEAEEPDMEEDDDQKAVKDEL

[14] = target: Protein disulfide-isomerase A6 (Homo sapiens, UniProt Q15084); experiment: Secondary Assay for Selectivity of PDI Inhibitors (against ERp5) Measured in Biochemical System Using Plate Reader - 2137-04_Inhibitor_Dose_DryPowder_Activity_Set3.
Chain of Protein disulfide-isomerase A6 (Q15084 whole entry): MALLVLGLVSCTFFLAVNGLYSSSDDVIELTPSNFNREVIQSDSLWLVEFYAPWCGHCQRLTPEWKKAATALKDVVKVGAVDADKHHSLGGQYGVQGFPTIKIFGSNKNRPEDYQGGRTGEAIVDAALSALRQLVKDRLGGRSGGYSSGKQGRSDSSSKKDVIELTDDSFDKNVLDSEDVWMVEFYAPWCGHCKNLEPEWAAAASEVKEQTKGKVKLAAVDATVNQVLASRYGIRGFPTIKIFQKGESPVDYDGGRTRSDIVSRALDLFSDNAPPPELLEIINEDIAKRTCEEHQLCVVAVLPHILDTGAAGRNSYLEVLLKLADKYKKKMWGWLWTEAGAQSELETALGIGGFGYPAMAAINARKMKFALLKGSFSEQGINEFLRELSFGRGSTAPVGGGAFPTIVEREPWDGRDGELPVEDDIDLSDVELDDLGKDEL

[15] = HEK293 cell cytotoxicity, dose response, cytotoxicity control, HEK293T, ATP luminescence, dry powder (AID 652119); format: functional, cell-based
[16] = target: T3, Protein disulfide-isomerase; experiment: PDI inhibitors, insulin turbidity readout, confirmation, biochemical, dry powder samples, set 2 (AID 652146)
[17] = target: ALK tyrosine kinase receptor (Homo sapiens, UniProt Q9UM73); format: functional;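 further: ALK tested as one member of a kinase panel screen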
[18] = target: Aurora kinase A (Homo sapiens, UniProt O14965); format: functional;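 further: value from the Navigating the Kinome kinase panel profiling, panel entry STK6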
Chain of Aurora kinase A (O14965 whole entry): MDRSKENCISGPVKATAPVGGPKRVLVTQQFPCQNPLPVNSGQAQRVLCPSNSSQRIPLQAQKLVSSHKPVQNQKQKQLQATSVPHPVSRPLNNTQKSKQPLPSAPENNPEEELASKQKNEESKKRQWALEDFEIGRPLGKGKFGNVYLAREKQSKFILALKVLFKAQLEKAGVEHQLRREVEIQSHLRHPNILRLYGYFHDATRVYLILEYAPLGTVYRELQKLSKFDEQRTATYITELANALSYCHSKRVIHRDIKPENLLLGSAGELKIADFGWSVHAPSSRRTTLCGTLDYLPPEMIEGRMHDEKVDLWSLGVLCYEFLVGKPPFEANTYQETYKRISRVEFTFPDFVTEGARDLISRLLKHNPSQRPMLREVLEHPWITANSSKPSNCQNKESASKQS

[19] = target: Focal adhesion kinase 1 (Homo sapiens, UniProt Q05397); format: functional;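 further: measured as one member of a kinome panel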
Chain of Focal adhesion kinase 1 (Q05397 whole entry): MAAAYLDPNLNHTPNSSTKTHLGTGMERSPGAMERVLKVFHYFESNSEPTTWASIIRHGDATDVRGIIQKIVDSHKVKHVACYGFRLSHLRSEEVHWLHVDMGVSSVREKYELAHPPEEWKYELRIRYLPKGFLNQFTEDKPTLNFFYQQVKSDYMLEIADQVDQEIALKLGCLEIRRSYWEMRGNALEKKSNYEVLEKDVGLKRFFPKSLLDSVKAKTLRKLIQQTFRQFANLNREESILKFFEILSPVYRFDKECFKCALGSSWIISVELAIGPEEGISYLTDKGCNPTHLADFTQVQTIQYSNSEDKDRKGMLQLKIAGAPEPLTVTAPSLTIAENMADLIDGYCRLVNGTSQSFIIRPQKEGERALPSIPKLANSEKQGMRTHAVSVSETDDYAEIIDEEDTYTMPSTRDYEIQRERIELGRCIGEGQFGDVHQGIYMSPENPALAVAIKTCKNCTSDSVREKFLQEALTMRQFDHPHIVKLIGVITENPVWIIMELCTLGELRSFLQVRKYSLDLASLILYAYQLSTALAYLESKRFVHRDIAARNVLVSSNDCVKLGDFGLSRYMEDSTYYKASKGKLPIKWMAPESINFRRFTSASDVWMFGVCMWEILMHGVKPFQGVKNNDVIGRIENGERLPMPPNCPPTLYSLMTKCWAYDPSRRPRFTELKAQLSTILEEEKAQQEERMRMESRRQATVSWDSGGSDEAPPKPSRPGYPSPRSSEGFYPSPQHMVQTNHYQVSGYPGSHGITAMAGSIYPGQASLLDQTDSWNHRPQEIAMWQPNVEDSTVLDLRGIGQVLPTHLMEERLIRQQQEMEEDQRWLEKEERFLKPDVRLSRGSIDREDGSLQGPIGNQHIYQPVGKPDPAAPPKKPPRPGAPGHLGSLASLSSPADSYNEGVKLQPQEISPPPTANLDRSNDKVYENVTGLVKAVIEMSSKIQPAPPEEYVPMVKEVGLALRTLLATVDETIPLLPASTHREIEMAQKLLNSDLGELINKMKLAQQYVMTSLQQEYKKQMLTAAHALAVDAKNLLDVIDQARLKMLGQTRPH

[20] = target: Aurora kinase B (Homo sapiens, UniProt Q96GD4); format: functional
Chain of Aurora kinase B (Q96GD4 whole entry): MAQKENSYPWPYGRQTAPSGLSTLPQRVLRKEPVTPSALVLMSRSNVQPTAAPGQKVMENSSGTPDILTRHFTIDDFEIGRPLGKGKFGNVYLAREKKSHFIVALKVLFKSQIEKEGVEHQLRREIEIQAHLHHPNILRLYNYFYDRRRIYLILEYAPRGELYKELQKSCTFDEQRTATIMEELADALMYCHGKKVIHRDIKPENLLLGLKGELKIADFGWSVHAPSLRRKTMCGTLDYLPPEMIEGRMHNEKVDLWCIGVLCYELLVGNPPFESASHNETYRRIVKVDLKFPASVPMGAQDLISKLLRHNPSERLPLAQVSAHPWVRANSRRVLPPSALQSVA

[21] = target: Latent membrane protein 1 (Human herpesvirus 4 (strain B95-8), UniProt P03230); experiment: TES1-eGFP NF-kB reporter inhibition versus Tet-On dsRED, dose response, selectivity assay for LMP1 NF-kB inhibitor project, imaging, HEK293T, dual-color eGFP/dsRED, cherry-picks (AID 588398); format: functional, cell-based
Chain of Latent membrane protein 1 (P03230 whole entry, the tested form may be a part): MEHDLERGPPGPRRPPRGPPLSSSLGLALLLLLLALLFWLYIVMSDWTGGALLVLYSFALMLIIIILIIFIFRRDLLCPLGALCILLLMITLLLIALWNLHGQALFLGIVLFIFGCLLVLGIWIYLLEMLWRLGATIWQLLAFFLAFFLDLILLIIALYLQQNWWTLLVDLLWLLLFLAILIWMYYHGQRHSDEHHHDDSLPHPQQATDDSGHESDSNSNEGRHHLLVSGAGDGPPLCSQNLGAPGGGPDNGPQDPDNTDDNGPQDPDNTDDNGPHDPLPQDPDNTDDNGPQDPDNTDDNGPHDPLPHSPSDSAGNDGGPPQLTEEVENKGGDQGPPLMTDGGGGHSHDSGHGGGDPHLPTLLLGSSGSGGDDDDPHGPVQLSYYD

[22] = target: Disintegrin and metalloproteinase domain-containing protein 17 (Homo sapiens, UniProt P78536); experiment: exosite inhibitors of ADAM17, dose response, biochemical (AID 743260)
Chain of Disintegrin and metalloproteinase domain-containing protein 17 (P78536 whole entry, the tested form may be a part): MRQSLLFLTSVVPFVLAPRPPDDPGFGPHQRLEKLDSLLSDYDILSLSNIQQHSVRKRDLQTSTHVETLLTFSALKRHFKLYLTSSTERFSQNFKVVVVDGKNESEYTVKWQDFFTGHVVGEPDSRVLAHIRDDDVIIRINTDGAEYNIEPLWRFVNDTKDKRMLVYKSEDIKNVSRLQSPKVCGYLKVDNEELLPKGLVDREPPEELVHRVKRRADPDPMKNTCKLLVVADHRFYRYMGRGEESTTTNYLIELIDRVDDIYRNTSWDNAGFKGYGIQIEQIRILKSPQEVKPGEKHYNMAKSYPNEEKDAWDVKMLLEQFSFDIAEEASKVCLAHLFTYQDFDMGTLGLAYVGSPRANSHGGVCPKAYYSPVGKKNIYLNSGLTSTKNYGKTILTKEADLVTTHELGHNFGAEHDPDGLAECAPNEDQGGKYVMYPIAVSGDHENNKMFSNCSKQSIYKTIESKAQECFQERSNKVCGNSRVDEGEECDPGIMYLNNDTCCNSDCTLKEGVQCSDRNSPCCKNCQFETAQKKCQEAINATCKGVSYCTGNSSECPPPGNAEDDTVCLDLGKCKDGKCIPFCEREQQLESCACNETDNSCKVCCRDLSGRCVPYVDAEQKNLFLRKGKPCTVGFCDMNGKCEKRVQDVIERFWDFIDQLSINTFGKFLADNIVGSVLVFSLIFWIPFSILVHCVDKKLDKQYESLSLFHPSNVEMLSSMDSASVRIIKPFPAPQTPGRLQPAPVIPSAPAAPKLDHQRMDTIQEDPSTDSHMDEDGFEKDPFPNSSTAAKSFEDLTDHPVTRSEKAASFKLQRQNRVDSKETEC

[23] = ADAM10 protease inhibitors, dose response, selectivity assay for ADAM17 exosite inhibitor project, biochemical, FRET peptide substrate, recombinant human ADAM10 (AID 743259);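 further: ADAM10 enzyme cleaving a FRET peptide substrate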

CC(=O)Oc1ccc(N2C(=O)c3cccc4c([N+](=O)[O-])ccc(c34)C2=O)cc1
CC50 [1]: 6.74 µM (active)
CC50 [2]: > 20 µM (active)
IC50 [3]: 9.16 µM (active)
IC50 [4]: 6.34 µM (active)
IC50 [5]: 4.06 µM (active)

COc1ccc(-c2nnc(SCc3coc(-c4cccs4)n3)[nH]2)cc1
IC50 [6]: > 99 µM (inactive)
IC50 [7]: > 99 µM (inactive)

CCOC(=O)C1(CCOc2ccccc2)CCN(Cc2ccc(O)c(Cl)c2)CC1
EC50 [8]: > 120 µM (not active)
EC50 [9]: > 120 µM (not active)
EC50 [10]: > 120 µM (not active)
AC50 [11]: 99.6 µM (active)
EC50 [12]: > 380 µM (inactive)
AC50 [13]: 0.599 µM (active)
AC50 [14]: 30 µM (inactive)
AC50 [15]: > 52 µM (inactive)
AC50 [16]: 2 µM (active)

Cc1cc(N2CCOCC2)cc2[nH]c(-c3c(NCCc4ccccc4)cc[nH]c3=O)nc12
Ki [17]: 0.126 µM (active)
Ki [18]: 0.794 µM (active)
Ki [19]: > 1.58 µM (inactive)
Ki [20]: 0.1 µM (active)

COc1ccc(CN(C(=O)c2nsc(Cl)c2Cl)C(C(=O)NC2CCCC2)c2ccc(C)cc2)cc1 (stereo not drawn)
AC50 [21]: 27.6 µM (active)
IC50 [22]: > 69.5 µM (inactive)
IC50 [23]: > 7.72 µM (active)
